Test system: LG0703-F948-PDC complex spheroid viability
Test: Anticancer human tumor LG0703-F948-PDC patient-derived lung adenocarcinoma cell line growth inhibition
Settings: for IC50: curve of first compound; for viability, T/C: stronger effect = lower value
Description: Multicellular complex tumor spheroid response to LSD1 Inhibitor Iadademstat in combination with a variety of drugs and investigational agents in selected tumor cell lines
The current study was undertaken to assess response to LSD1 inhibitors in combination with standard-of-care drugs and investigational agents in solid tumor complex spheroid models as well as in the K-562 leukemia. Complex spheroids include a stromal component modeled by human endothelial cells (HUVEC) and fibroblasts modeled by human mesenchymal stem cells (MSCs). The concentration ranges selected for each drug and investigational agent were based upon clinically achievable concentrations if the clinical Cmax of the agent was known.
Compounds. The drugs and investigational agents used in this study are listed on Table 1. All of the agents used, including staurosporine (NSC755774) and gemcitabine (NSC613327), were obtained from the Developmental Therapeutics Program, NCI. FDA-approved anticancer drugs are available from the NCI at http://dtp.nci.nih.gov/branches/dscb/oncology_drugset_explanation.html. Drugs and investigational agents were >95% pure by proton nuclear magnetic resonance (NMR) and liquid chromatography/mass spectrometry (LC/MS). Stock solutions were prepared at 400x in DMSO, stored at -70 degrees C, and diluted in fresh medium prior to their use. The final concentration of DMSO in cell culture wells never exceeded 0.25% (v/v). The FDA-approved anticancer drug set is available from the Developmental Therapeutics Program at https://dtp.cancer.gov/organization/dscb/obtaining/available_plates.htm. All drugs and investigational agents were tested over a range starting from a high concentration at or near the clinical Cmax and decreasing in half-log increments. If the clinical Cmax for an agent had not been determined, the highest concentration tested was 10 microM.
Cell Lines. The patient-derived cancer cell (PDC) lines: 292921-168-R-J2-PDC, K24384-001-R-PDC, and 521955-158-R2-J5-PDC pancreatic carcinomas, 556581-035-R-J1 ovarian carcinoma, 324938-238-R-J1-PDC, 855422-203-R-J1-PDC and 883617-216-R-J1-PDC urothelial bladder carcinomas, 743489-274-T-PDC renal cell carcinoma, 138582-R-J1 Merkel cell tumor, K60290-347-R-J1 and K57222-313-R-J1-PDC glioblastomas, 653999-131-R-J2-PDC, LG0703-F948-PDC, and 349418-098-R-PDC non-small cell lung carcinomas, 885512-296-R-J2-PDC, 171881-019-R-J1-PDC breast carcinomas and 186277-243-T-J2-PDC and 233499-124-R-J2-PDC colon carcinomas were obtained from the NCI Patient-Derived Models Repository (PDMR, https://pdmr.cancer.gov). The established cell lines NCI/ADR-RES (RRID:CVCL_14520 and OVCAR-5 (RRID:CVCL_1628) ovarian carcinomas, 786-O (RRID:CVCL_1051) and A498 (RRID:CVCL_A498) renal cell carcinoma, NCI-H211 (ATCC, cat. CRL-5824; RRID:CVCL_1529), NCI-H196 (ATCC, cat. CRL-5823, RRID:CVCL_1509), SW 1271 (ATCC, cat. CRL-2177, RRID:CVCL_1716) and NCI-H1876 (ATCC, cat. CRL-5902, RRID:CVCL_1503) small cell lung carcinomas, MDA-MB-231 (RRID:CVCL_0062) and MDA-MB-468 (RRID:CVCL_0419)breast carcinomas (10-12). Pooled donor human umbilical vein endothelial cells (HUVEC, Lonza, cat. CC-2519) and human mesenchymal stem cells (hMSC, Lonza, cat. PT-2501) were purchased from Lonza (Walkersville, MD).
Cell Culture. All cells were maintained in an incubator at 37 degrees C and 5% CO2 with 95% humidity. The PDC lines were cultured according to standard operating procedures established by the NCI PDMR (https://pdmr.cancer.gov). Briefly all PDCs were thawed and cultured in Matrigel-coated flasks prepared with a working solution of 1X Ham's F-12 nutrient mix, without supplementation (Invitrogen, Waltham, MA, cat. 11765054), 100 U/mL penicillin-streptomycin (Invitrogen, cat. 15140122), and 2.5% Matrigel (Corning Inc., Corning, NY, cat. 354248) for the first three passages. […]

[1] = second compound 0.1 µM, first compound 0.00316 µM
[2] = second compound 0.1 µM, first compound 0.01 µM
[3] = second compound 0.1 µM, first compound 0.0316 µM
[4] = second compound 0.1 µM, first compound 0.1 µM
[5] = second compound 0.316 µM, first compound 0.00316 µM
[6] = second compound 0.316 µM, first compound 0.01 µM
[7] = second compound 0.316 µM, first compound 0.0316 µM
[8] = second compound 0.316 µM, first compound 0.1 µM
[9] = second compound 1 µM, first compound 0.00316 µM
[10] = second compound 1 µM, first compound 0.01 µM
[11] = second compound 1 µM, first compound 0.0316 µM
[12] = second compound 1 µM, first compound 0.1 µM
[13] = second compound 3.16 µM, first compound 0.00316 µM
[14] = second compound 3.16 µM, first compound 0.01 µM
[15] = second compound 3.16 µM, first compound 0.0316 µM
[16] = second compound 3.16 µM, first compound 0.1 µM
[17] = second compound 10 µM, first compound 0.00316 µM
[18] = second compound 10 µM, first compound 0.01 µM
[19] = second compound 10 µM, first compound 0.0316 µM
[20] = second compound 10 µM, first compound 0.1 µM
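Note: spheroids exposed to agents for seven days before readout.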
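Throughout, for viability, T/C: 100% = DMSO vehicle control wells as normalization base.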

## CC[C@@]1(O)C(=O)OCc2c1cc1n(c2=O)Cc2cc3c(CN(C)C)c(O)ccc3nc2-1 + NC1CC1c1ccc(-c2cccc(O)c2)cc1
Second compound 0.1 µM
  IC50: > 100 nM
Second compound 0.316 µM
  IC50: > 100 nM
Second compound 1 µM
  IC50: > 100 nM
Second compound 3.16 µM
  IC50: > 100 nM
Second compound 10 µM
  IC50: > 100 nM
Second compound 0.1 µM, first compound 0.000316 µM
  viability, T/C: 117%
Second compound 0.1 µM, first compound 0.001 µM
  viability, T/C: 116%
[1]
  viability, T/C: 106%
[2]
  viability, T/C: 84.8%
[3]
  viability, T/C: 70%
[4]
  viability, T/C: 49.7%
Second compound 0.316 µM, first compound 0.000316 µM
  viability, T/C: 118%
Second compound 0.316 µM, first compound 0.001 µM
  viability, T/C: 107%
[5]
  viability, T/C: 106%
[6]
  viability, T/C: 82.8%
[7]
  viability, T/C: 64.5%
[8]
  viability, T/C: 55.3%
Second compound 1 µM, first compound 0.000316 µM
  viability, T/C: 114%
Second compound 1 µM, first compound 0.001 µM
  viability, T/C: 109%
[9]
  viability, T/C: 97.8%
[10]
  viability, T/C: 95.2%
[11]
  viability, T/C: 67.1%
[12]
  viability, T/C: 54.3%
Second compound 3.16 µM, first compound 0.000316 µM
  viability, T/C: 108%
Second compound 3.16 µM, first compound 0.001 µM
  viability, T/C: 97.2%
[13]
  viability, T/C: 100%
[14]
  viability, T/C: 89.2%
[15]
  viability, T/C: 81.9%
[16]
  viability, T/C: 71.5%
Second compound 10 µM, first compound 0.000316 µM
  viability, T/C: 103%
Second compound 10 µM, first compound 0.001 µM
  viability, T/C: 115%
[17]
  viability, T/C: 107%
[18]
  viability, T/C: 76.5%
[19]
  viability, T/C: 78.8%
[20]
  viability, T/C: 62.1%

## COc1cc(C2c3cc4c(cc3C(OC3OC5COC(C)OC5C(O)C3O)C3COC(=O)C23)OCO4)cc(OC)c1O (stereo not given) + NC1CC1c1ccc(-c2cccc(O)c2)cc1
Second compound 0.1 µM
  IC50: > 3000 nM
Second compound 0.316 µM
  IC50: > 3000 nM
Second compound 1 µM
  IC50: > 3000 nM
Second compound 3.16 µM
  IC50: > 3000 nM
Second compound 10 µM
  IC50: > 3000 nM
Second compound 0.1 µM, first compound 0.00949 µM
  viability, T/C: 117%
Second compound 0.1 µM, first compound 0.03 µM
  viability, T/C: 126%
Second compound 0.1 µM, first compound 0.0949 µM
  viability, T/C: 101%
Second compound 0.1 µM, first compound 0.3 µM
  viability, T/C: 98.5%
Second compound 0.1 µM, first compound 0.949 µM
  viability, T/C: 89.5%
Second compound 0.1 µM, first compound 3 µM
  viability, T/C: 66.9%
Second compound 0.316 µM, first compound 0.00949 µM
  viability, T/C: 117%
Second compound 0.316 µM, first compound 0.03 µM
  viability, T/C: 111%
Second compound 0.316 µM, first compound 0.0949 µM
  viability, T/C: 106%
Second compound 0.316 µM, first compound 0.3 µM
  viability, T/C: 88.4%
Second compound 0.316 µM, first compound 0.949 µM
  viability, T/C: 92.2%
Second compound 0.316 µM, first compound 3 µM
  viability, T/C: 75.4%
Second compound 1 µM, first compound 0.00949 µM
  viability, T/C: 104%
Second compound 1 µM, first compound 0.03 µM
  viability, T/C: 115%
Second compound 1 µM, first compound 0.0949 µM
  viability, T/C: 105%
Second compound 1 µM, first compound 0.3 µM
  viability, T/C: 95.9%
Second compound 1 µM, first compound 0.949 µM
  viability, T/C: 105%
Second compound 1 µM, first compound 3 µM
  viability, T/C: 77.8%
Second compound 3.16 µM, first compound 0.00949 µM
  viability, T/C: 102%
Second compound 3.16 µM, first compound 0.03 µM
  viability, T/C: 121%
Second compound 3.16 µM, first compound 0.0949 µM
  viability, T/C: 117%
Second compound 3.16 µM, first compound 0.3 µM
  viability, T/C: 100%
Second compound 3.16 µM, first compound 0.949 µM
  viability, T/C: 88.1%
Second compound 3.16 µM, first compound 3 µM
  viability, T/C: 86.2%
Second compound 10 µM, first compound 0.00949 µM
  viability, T/C: 104%
Second compound 10 µM, first compound 0.03 µM
  viability, T/C: 116%
Second compound 10 µM, first compound 0.0949 µM
  viability, T/C: 99.9%
Second compound 10 µM, first compound 0.3 µM
  viability, T/C: 103%
Second compound 10 µM, first compound 0.949 µM
  viability, T/C: 81.6%
Second compound 10 µM, first compound 3 µM
  viability, T/C: 66.8%

## Nc1ncn(C2CC(O)C(CO)O2)c(=O)n1 (stereo not given) + NC1CC1c1ccc(-c2cccc(O)c2)cc1
Second compound 0.1 µM
  IC50: > 1000 nM
Second compound 0.316 µM
  IC50: > 1000 nM
Second compound 1 µM
  IC50: > 1000 nM
Second compound 3.16 µM
  IC50: > 1000 nM
Second compound 10 µM
  IC50: > 1000 nM
[1]
  viability, T/C: 106%
[2]
  viability, T/C: 111%
[3]
  viability, T/C: 99.3%
[4]
  viability, T/C: 116%
Second compound 0.1 µM, first compound 0.316 µM
  viability, T/C: 85.4%
Second compound 0.1 µM, first compound 1 µM
  viability, T/C: 88.9%
[5]
  viability, T/C: 116%
[6]
  viability, T/C: 117%
[7]
  viability, T/C: 106%
[8]
  viability, T/C: 95.2%
Second compound 0.316 µM, first compound 0.316 µM
  viability, T/C: 95.7%
Second compound 0.316 µM, first compound 1 µM
  viability, T/C: 94.3%
[9]
  viability, T/C: 106%
[10]
  viability, T/C: 103%
[11]
  viability, T/C: 104%
[12]
  viability, T/C: 95.7%
Second compound 1 µM, first compound 0.316 µM
  viability, T/C: 96.3%
Second compound 1 µM, first compound 1 µM
  viability, T/C: 94.6%
[13]
  viability, T/C: 108%
[14]
  viability, T/C: 112%
[15]
  viability, T/C: 99.8%
[16]
  viability, T/C: 89.7%
Second compound 3.16 µM, first compound 0.316 µM
  viability, T/C: 105%
Second compound 3.16 µM, first compound 1 µM
  viability, T/C: 105%
[17]
  viability, T/C: 103%
[18]
  viability, T/C: 104%
[19]
  viability, T/C: 107%
[20]
  viability, T/C: 106%
Second compound 10 µM, first compound 0.316 µM
  viability, T/C: 98.4%
Second compound 10 µM, first compound 1 µM
  viability, T/C: 95.3%

Reference: PubChem BioAssay AID1918952 (Molecular Pharmacology Branch, DTP, NCI, 2023)
